Like-named read-outs stand apart in the source and are kept apart here.
How the values were obtained:
Test in all cases: Determination of MIC values (BHI broth, 96 well microtiter plate)
Type in all cases: cell-based
[1] = tested on: Streptococcus pneumoniae; settings: Streptococcus pneumoniae, read-out: MIC S. pneu
Method in brief: (§1)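 Broth microdilution in BHI broth used final compound concentrations of 25 to 0.39 μg/mL, diluted from DMSO solutions. Inoculum was 10^5–10^6 cells/mL from cultures grown to a 0.5 McFarland standard. Plates were incubated overnight (~16 h) at 37 °C in about 7–10% CO2; MIC was the lowest concentration with no visible growth.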

[2] = tested on: methicillin-resistant Staphylococcus aureus (MRSA); settings: Staphylococcus aureus, MRSA, read-out: MIC MRSA
Method in brief: as §1

[3] = tested on: vancomycin-resistant Enterococcus spp. (VRE); settings: Enterococcus, VRE, read-out: MIC VREF
Method in brief: as §1

[4] = S. pneu, BHI broth, overnight 37° C.
[5] = VREF, BHI broth, overnight 37° C.

SMILES	MIC [1, 4] [µg/mL]	MIC ([2]; BHI broth, overnight 37° C.) [µg/mL]	MIC [3, 5] [µg/mL]	MIC [1] [µg/mL]	MIC [2] [µg/mL]	MIC [3] [µg/mL]
Cn1cc(-c2cc(C(=O)NC3CCC(N)CC3)c3ccc(I)cc3n2)c2cc(Br)ccc21 (stereo not drawn) [Example 333]	< 7	< 7	< 7			
NCc1cccc(CNC(=O)c2cc(-c3c[nH]c4ccc(Br)cc34)nc3cc(Br)ccc23)n1 [Example 334]	< 7	< 7	< 7			
CCOC(=O)n1cc(-c2cc(C(=O)NCc3ccc(CN)cc3)c3cc(C#CCN4CCCCC4)ccc3n2)c2cc(Br)ccc21 [Example 337]	> 25	> 25	> 25			
Cn1cc(-c2cc(C(=O)NCc3cccc(CN)c3)c3cc(I)ccc3n2)c2cc(Br)ccc21 [Example 356]	< 7	< 7	< 7			
Cn1cc(-c2cc(C(=O)NCC3CCC(CN)CC3)c3cc(I)ccc3n2)c2cc(Br)ccc21 (stereo not drawn) [Example 357]	< 7	< 7	< 7			
Cn1cc(-c2cc(C(=O)NCC3CCCC(CN)C3)c3cc(I)ccc3n2)c2cc(Br)ccc21 (stereo not drawn) [Example 358]	< 7	< 7	< 7			
Cn1cc(-c2cc(C(=O)NC3CCC(N)CC3)c3cc(I)ccc3n2)c2cc(Br)ccc21 (stereo not drawn) [Example 360]	< 7	< 7	< 7			
CCOc1cc(-c2cn(C(=O)OC(C)(C)C)c3ccc(Br)cc23)nc2ccc(I)cc12 [Example 361]	> 25	> 25	> 25			
CC(C)(C)OC(=O)n1cc(-c2ccc3cc(I)ccc3n2)c2cc(Br)ccc21 [Example 362]	> 25	> 25	> 25			
Cn1cc(-c2cc(C(=O)NCc3ccc(CN)cc3)c3cc(Cl)ccc3n2)c2cc(Br)ccc21 [Example 365]	< 7	< 7	< 7			
Cn1cc(-c2cc(C(=O)NCc3cccc(CN)c3)c3cc(Cl)ccc3n2)c2cc(Br)ccc21 [Example 366]	> 25	> 25	> 25			
Cn1cc(-c2cc(C(=O)NCC3CCC(CN)CC3)c3cc(Cl)ccc3n2)c2cc(Br)ccc21 (stereo not drawn) [Example 368]	< 7	< 7	< 7			
Cn1cc(-c2cc(C(=O)NCC3CCCC(CN)C3)c3cc(Cl)ccc3n2)c2cc(Br)ccc21 (stereo not drawn) [Example 369]	< 7	< 7	< 7			
Cn1cc(-c2cc(C(=O)NCCN)c3cc(Cl)ccc3n2)c2cc(Br)ccc21 [Example 370]	< 7	< 7	< 7			
Cn1cc(-c2cc(C(=O)NC3CCC(N)CC3)c3cc(Cl)ccc3n2)c2cc(Br)ccc21 (stereo not drawn) [Example 371]	< 7	< 7	< 7			
Cn1cc(-c2cc(C(=O)NCc3ccc(CN)cc3)c3cc(C#CCN4CCCCC4)ccc3n2)c2cc(Br)ccc21 [Example 376]	< 7	< 25	< 25			
Cn1cc(-c2cc(C(=O)NCCN)c3cc(C#CCN4CCCCC4)ccc3n2)c2cc(Br)ccc21 [Example 377]	< 7	< 7	< 7			
CC(C)(C)OC(=O)n1cc(/C=N/c2cccc(Cl)c2)c2cc(Br)ccc21 [Example 381]	> 25	> 25	> 25			
C[Si](C)(C)CCOC(=O)n1cc(C=O)c2cc(Br)ccc21 [Example 382]				> 25	> 25	> 25
C[Si](C)(C)CCOC(=O)n1cc(/C=N/c2ccc(I)cc2)c2cc(Br)ccc21 [Example 383]				> 25	> 25	> 25
Cc1[nH]c2ccc(Cl)cc2c1-c1ccc2cc(Cl)ccc2n1 [Example 384]	< 7	< 7	> 25			
Cn1cc(-c2cc(C(=O)NCc3ccc(CN)cc3)c3cc(C#CCNCCc4ccccc4)ccc3n2)c2cc(Br)ccc21 [Example 389]	< 25	< 7	< 7			
Cn1cc(-c2cc(C(=O)NCc3ccc(CN)cc3)c3cc(C#CCNCCc4ccc(Cl)cc4)ccc3n2)c2cc(Br)ccc21 [Example 390]	< 7	< 25	< 7			
Cn1cc(-c2cc(C(=O)NCc3ccc(CN)cc3)c3cc(C#CCNCC4CCCCC4)ccc3n2)c2cc(Br)ccc21 [Example 391]	< 7	< 7	< 7			
CN(C)CCNCC#Cc1ccc2nc(-c3cn(C)c4ccc(Br)cc34)cc(C(=O)NCc3ccc(CN)cc3)c2c1 [Example 392]	< 7	< 7	< 7			
Cn1cc(-c2cc(C(=O)NCc3ccc(CN)cc3)c3cc(C#CCN4CCCC4)ccc3n2)c2cc(Br)ccc21 [Example 393]	< 25	< 7	< 25			
Cn1cc(-c2cc(C(=O)NCc3ccc(CN)cc3)c3cc(C#CCN4CCc5ccccc5C4)ccc3n2)c2cc(Br)ccc21 [Example 394]	> 25	> 25	> 25			
CN1CCN(CC#Cc2ccc3nc(-c4cn(C)c5ccc(Br)cc45)cc(C(=O)NCc4ccc(CN)cc4)c3c2)CC1 [Example 395]	< 25	< 7	< 25			

Now from value to compound, other results behind:

MIC [1, 4] [µg/mL]	MIC ([2]; BHI broth, overnight 37° C.) [µg/mL]	MIC [3, 5] [µg/mL]	SMILES	MIC [1] [µg/mL]	MIC [2] [µg/mL]	MIC [3] [µg/mL]
< 7	< 7	< 7	OCc1cc(-c2c[nH]c3ccc(Br)cc23)nc2cc(Br)ccc12 [Example 335]			
< 7	< 25	> 25	Fc1cccc2[nH]cc(-c3cc(Cl)c4ccccc4n3)c12 [Example 338]			
< 7	< 7	< 7	Fc1ccc2[nH]cc(-c3cc(Cl)c4ccccc4n3)c2c1 [Example 339]			
< 7	< 7	< 7	Fc1ccc2c(-c3cc(Cl)c4ccccc4n3)c[nH]c2c1 [Example 340]			
< 7	< 7	< 7	Clc1cc(-c2c[nH]c3cccc(Cl)c23)nc2ccccc12 [Example 341]			
< 7	< 7	> 25	Clc1ccc2c(-c3cc(Cl)c4ccccc4n3)c[nH]c2c1 [Example 343]			
< 7	< 7	> 25	Clc1cc(-c2c[nH]c3c(Cl)cccc23)nc2ccccc12 [Example 344]			
< 7	< 7	> 25	Clc1cc(-c2c[nH]c3ccc(Br)cc23)nc2ccccc12 [Example 345]			
< 25	< 25	> 25	Clc1cc(-c2c[nH]c3c(Br)cccc23)nc2ccccc12 [Example 346]			
< 25	< 25	> 25	Oc1ccc2[nH]cc(-c3cc(Cl)c4ccccc4n3)c2c1 [Example 347]			
< 7	< 7	> 25	COc1ccc2[nH]cc(-c3cc(Cl)c4ccccc4n3)c2c1 [Example 348]			
> 25	> 25	> 25	O=[N+]([O-])c1ccc2[nH]cc(-c3cc(Cl)c4ccccc4n3)c2c1 [Example 349]			
> 25	> 25	> 25	N#Cc1ccc2[nH]cc(-c3cc(Cl)c4ccccc4n3)c2c1 [Example 350]			
< 7	< 7	> 25	CC(=O)Oc1cccc2[nH]cc(-c3cc(Cl)c4ccccc4n3)c12 [Example 351]			
< 7	< 7	> 25	Cc1[nH]c2ccccc2c1-c1cc(Cl)c2ccccc2n1 [Example 352]			
> 25	> 25	> 25	Clc1cc(-c2c(-c3ccccc3)[nH]c3ccccc23)nc2ccccc12 [Example 353]			
> 25	> 25	> 25	Clc1ccc2nc(-c3c[nH]c4c(Cl)cccc34)ccc2c1 [Example 354]			
> 25	> 25	> 25	Clc1ccc2nc(-c3c[nH]c4c(Br)cccc34)ccc2c1 [Example 355]			
< 7	< 7	< 7	Brc1ccc2[nH]cc(-c3ccc4cc(I)ccc4n3)c2c1 [Example 363]			
< 7	< 7	< 25	CCOc1cc(-c2c[nH]c3ccc(Br)cc23)nc2ccc(I)cc12 [Example 364]			
< 7	< 7	< 25	NCc1cc(-c2c[nH]c3ccc(Cl)cc23)nc2ccccc12 [Example 372]			
< 7	< 7	< 7	Brc1ccc2c(CNCc3ccccc3)cc(-c3c[nH]c4ccc(Br)cc34)nc2c1 [Example 373]			
< 7	< 7	< 7	NCc1ccc(/C=C/c2cc(-c3c[nH]c4ccc(Br)cc34)nc3cc(Br)ccc23)cc1 [Example 374]			
> 25	> 25	> 25	CCB(OC)C(=O)c1cc(-c2c[nH]c3ccc(Br)cc23)nc2cc(Br)ccc12 [Example 375]			
> 25	> 25	> 25	O=[N+]([O-])c1cccc2nc(-c3c[nH]c4ccc(Cl)cc34)ccc12 [Example 385]			
> 25	> 25	> 25	COc1ccc2[nH]c(C)c(-c3ccc4c([N+](=O)[O-])cccc4n3)c2c1 [Example 386]			
> 25	> 25	> 25	O=[N+]([O-])c1cccc2nc(-c3c[nH]c4ccc(Br)cc34)ccc12 [Example 387]			
> 25	> 25	> 25	O=[N+]([O-])c1cccc2nc(-c3c[nH]c4cc(F)ccc34)ccc12 [Example 388]			
